Assay results from patent US20230190811A1, “COMPOSITIONS AND METHODS FOR USE IN THE TREATMENT OF CANCER” (Poseida Therapeutics, Inc., priority 2020, published 2023).
Like-named read-outs stand apart in the source and are kept apart here.

Experiments:
[1] = system: cells; conditions: cited from earlier work
[2] = system: T cells carrying an iC9-based safety switch gene; conditions: cited from earlier work
[3] = set-up: plasma level as % of maximal concentration: dose or concentration left out as unconfirmed; conditions: cited from earlier work
[4] = system: human pan T-cells with iC9 safety switch; test: iC9 safety switch test: viability of modified T cells incubated with AP1903 (7-AAD flow cytometry); format: cell-based
Excerpt: Human pan T-cells were nucleofected using an Amaxa 4D nucleofector with one of four piggyBac transposons. Modified T cells receiving the “mock” condition were nucleofected with an empty piggyBac transposon. Modified T cells received either a piggyBac transposon containing a therapeutic agent alone (a sequence encoding a CARTyrin) or a piggyBac transposon containing an integrated iC9 sequence and a therapeutic agent (a sequence encoding a CARTyrin). To test the iC9 safety switch, each of the four modified T cells were incubated for 24 hours with 0, 0.1 nM, 1 nM, 10 nM, 100 nM or 1000 nM AP1903 (an induction agent for […]). Viability was assessed by flow cytometry using 7-aminoactinomycin D (7-AAD), a fluorescent intercalator, as a marker for cells undergoing apoptosis.

[5] = GLP repeat dose intravenous toxicity study of rimiducid in rats; conditions: rat, in vivo
Excerpt: In vitro and in vivo studies have been conducted by Poseida with rimiducid and the iC9-based safety switch-containing CAR-T cell product P-BCMA-101 with similar results. A GLP repeat dose intravenous toxicity study in rats has recently been conducted by Poseida. […] (see Rimiducid Investigator's Brochure for further detail).

[6] = system: relapsed/refractory MM; conditions: standard of care; cited from earlier work
[7] = biological target: T1, B-cell maturation antigen (BCMA), human, expressed on cells (human, UniProt Q02223 1-184); test: screen of 4300+ human proteins, each individually expressed in human HEK293 cells
T1 construct: whole, on cells; also called Tumor necrosis factor receptor superfamily member 17 (TNFRSF17)
T1 sequence (looked up): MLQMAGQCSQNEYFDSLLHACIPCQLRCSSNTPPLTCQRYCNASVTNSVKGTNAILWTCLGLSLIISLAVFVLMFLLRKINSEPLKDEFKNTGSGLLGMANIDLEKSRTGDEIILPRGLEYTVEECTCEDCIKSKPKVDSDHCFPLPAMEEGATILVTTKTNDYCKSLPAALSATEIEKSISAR
Excerpt: The Centyrin-Fc fusion protein was screened for binding against 4300+ human proteins. The vast majority of these human proteins represent cell surface membrane proteins, each individually expressed in human HEK293 cells.

Which results are given for `CC[C@H](C(=O)N1CCCC[C@H]1C(=O)O[C@H](CCc1ccc(OC)c(OC)c1)c1cccc(OCC(=O)NCCNC(=O)COc2cccc([C@@H](CCc3ccc(OC)c(OC)c3)OC(=O)[C@@H]3CCCCN3C(=O)[C@@H](CC)c3cc(OC)c(OC)c(OC)c3)c2)c1)c1cc(OC)c(OC)c(OC)c1` (relative stereo) [AP1903, 2-Piperidinecarboxylic acid, 1-[(2S)-1-oxo-2-(3,4,5-trimethoxyphenyl)butyl]-, 1,2-ethanediylbis[imino(2-oxo-2,1-ethanediyl)oxy-3,1-phenylene[(1R)-3-(3,4-dimethoxyphenyl)propylidene]]ester, [2S-[1(R*),2R*[S*[S*[1(R*),2R*]]]]]-(9C1)]?
amount needed in vitro for effective signaling of cells [1]: 10 to 100 nM; modified T cells eliminated ([2]; 0.4 mg/kg 2-hour infusion, within 30 minutes following infusion): 90%; GVHD outcome ([2]; 0.4 mg/kg): GVHD completely resolved; adverse events ([2]; clinical studies published to date): no significant adverse events; further depletion of modified T cells ([2]; during the next 24 hours): further log depletion; pharmacokinetics ([2]; human, in vivo): consistent and linear pharmacokinetics; toxicity ([2]; within and above the effective dose range (0.01-1.0 mg/kg)): effectively no toxicity; plasma levels in relation to dose ([3]; 0.01-1.0 mg/kg): directly proportional to dose; plasma level as % of maximal concentration ([3]; 2 hours post-dose): ~7%; plasma level as % of maximal concentration ([3]; 10 hours post-dose): ~1%; well-tolerated doses ([3]; Phase I study): up to 1 mg/kg; safety and tolerability ([3]; all dose levels 0.01-1.0 mg/kg): safe and well tolerated at all dose levels; plasma level as % of maximal concentration [3]: approximately 18%; mean Cmax ([3]; single dose infused IV over 2 hours, 0.01-1.0 mg/kg dose range): 10 to 1275 ng/mL; lowest concentration at which apoptosis is induced ([4]; cells containing iC9 construct, 24 hours incubation): ≤ 0.1 nM; shift of cell population to apoptotic quadrant with increasing induction agent ([4]; cells lacking the iC9 construct (CARTyrin only)): not observed; toxic effect [5]: No noticeable toxic effect; NOAEL ([5]; repeated (three times) intravenous administration): > 15 mg/kg

Which response rate [6] does the source give for “daratumumab: recently approved standard of care agent (mAb) for multiple myeloma” here?
Its response rate is no more than 30%.

B1: Centyrin-Fc fusion protein (the Centyrin from P-BCMA-101 fused to Fc) (Fc fusion)
chain: MLPAPKNLVVSRITEDSARLSWTAPDAAFDSFPIRYIETLIWGEAIWLDVPGSERSYDLTGLKPGTEYAVVITGVKGGRFSSPLVASFTT
notes: not shown: Fc part, any linker and the order of the parts are not described
Does B1 bind [7]?
Result: binds
